Reference: US4328242A, “α-(3,4,5-Trimethoxyhenzoyl)thiopropionyl-glycine” (Ausoria Farmaceutici S.r.l., priority 1980, dated 1982)
Like-named read-outs stand apart in the source and are kept apart here.

Tests used:
[1] = system: rats; assay: Protective activity of the liver in the intoxication caused by CCl4 (BSF elimination); format: in vivo; settings: rats intoxicated with CCl4; 200 and 400 mg/kg orally, 14 days; BSF 10 mg/kg i.v. on day 15; proportionate to the dosage
Experimental: The animals, that is rats, were intoxicated with CCl4 for a period of seven days. They were treated during the same days and for a subsequent period of seven days with TBPG in the dose of 200 and 400 mg/kg orally and with α-mercaptopropionylglycine in the dose of 90 and 180 mg/kg orally. On the fifteenth day, the rats have been treated with BSF in the amount of 10 mg/kg intravenously.

[2] = system: Rats; assay: Acute toxicity in rats; format: in vivo; settings: 20 tested
Experimental: (§1) The acute toxicity has been studied with Swiss albino rats and Wistar albino rats and in both instances, animals of both sexes have been used. The product is administered orally and endoperitoneally and the period of observation is ten days after the initial treatment. The values of DL50 by the statistical method with confidential limits up to 95% are calculated by means of the method of probits reported in Table I. Probits is a statistical unit of probable deviation used in biological assays; equal to the normal equivalent deviate increased by 5, used to make all normal equivalent deviation values positive.

[3] = Acute toxicity in rats; format: in vivo; settings: rat, in vivo; for mortality at 240 h: read-out: % Death; for LD50 at 240 h: 10 days observation, probits, read-out: DL50 mg/kg (Confidential Limits)
Experimental: as §1

[4] = system: rabbits; assay: Secretory activity in rabbits (bronchial secretion); format: in vivo
Description: This activity has been determined using the method described by E. M. Boyd and C. F. Boyd, modified by P. C. Braga, et al described in Bronchial Hypersecretion, 1973. This activity has been determined every hour for a period of four hours by measuring the amount of bronchial secretion derived from the laryngo-tracheal organs and from the tracheo-bronchial organs of rabbits.

[5] = Stability in reducing medium (SO2); format: physicochemical; settings: 25 mg/ml, sodium bisulfite calculated as SO2, refluxed three hours
Experimental: In the presence of SO2 --solutions containing 25 mg/ml of TBPG and MPG respectively in the presence of sodium bisulfite calculated as SO2 are warmed and refluxed for a period of three hours.

[6] = Stability to light; format: physicochemical; settings: powder form, light of a 60 watt lamp, three months
[7] = system: anaesthesized cats; assay: Pharmacodynamics in anaesthesized cats; format: in vivo; settings: up to 50 mg/kg intravenously
[8] = system: New Zealand rabbits; assay: Toxicity in the fetus, rabbits; format: in vivo; settings: female rabbits, daily oral and subcutaneous, 250 and 500 mg/kg, twenty eight days of gestation
Description: Toxicity in the fetus of TBPG has been studied in albino Sprague-Dawley rats and in New Zealand rabbits. In the case of rats both male and female, the treatment has been initiated four weeks prior to coupling and then has been continued only in the females during the twenty days of gestation.
In the case of female rabbits, the treatment has been carried out during the twenty eight days of gestation.

[9] = system: rats; assay: Chronic toxicity in rats; format: in vivo; settings: 24 weeks, 125 and 250 mg/kg oral, 200 mg/kg by inhalation
Experimental: The chronic toxicity of TBPG has been investigated in rats and dogs treated for a period of 24 weeks with 125 mg/kg and 250 mg/kg by the oral route and 200 mg/kg by inhalation.

[10] = system: rats; assay: Action on the period of sleep induced by barbiturates; format: in vivo; settings: rats intoxicated with CCl4; 200 and 400 mg/kg orally, two days; clear correlation between dosage and effect
Experimental: The activity of TBPG administered for two days in the dose of 200 and 400 mg/kg orally, has been determined on the basis of the reduction of the period of sleep induced by Nembutal on rats intoxicated with CCl4.

[11] = system: guinea pigs; assay: Antibronchospastic activity, histamine aerosol; format: in vivo; settings: oral, rectal or inhalation, 200 and 400 mg/kg
Description: Histamine administered in the form of an aerosol has caused in guinea pigs symptoms of broncho-spasm accompanied by convulsions, irreversible collapse and death.

[12] = with respect to the control animals

With `COc1cc(C(=O)SC(C)C(=O)NCC(=O)O)cc(OC)c1OC` (stereo not drawn) [TBPG, α-(3,4,5-trimethoxybenzoyl)thiopropionylglycine] the “elimination of BSF (hematic concentrations)” value [1] was “favors the elimination of BSF in a statistically significant manner”, the “No. of Animals Dead” value ([2]; i.p., 1500 mg/kg) was 0 and the “No. of Animals Dead” value ([2]; i.p., 2000 mg/kg) was 6. For the same compound, the “No. of Animals Dead” value ([2]; i.p., 2500 mg/kg) was 9, the “No. of Animals Dead” value ([2]; i.p., 3000 mg/kg) was 14 and the “No. of Animals Dead” value ([2]; i.p., 3500 mg/kg) was 17. The “No. of Animals Dead” value ([2]; orally, 3000 mg/kg) was 1, the “No. of Animals Dead” value ([2]; orally, 4000 mg/kg) was 6 and the “No. of Animals Dead” value ([2]; orally, 5000 mg/kg) was 9. The “No. of Animals Dead” value ([2]; orally, 6000 mg/kg) was 12, the “No. of Animals Dead” value ([2]; orally, 7000 mg/kg) was 17 and the mortality at 240 h ([3]; ip, 1500 mg/kg) was 0%. The mortality at 240 h ([3]; ip, 2000 mg/kg) was 30%, the mortality at 240 h ([3]; ip, 2500 mg/kg) was 45% and the mortality at 240 h ([3]; ip, 3000 mg/kg) was 70%. The mortality at 240 h ([3]; ip, 3500 mg/kg) was 85%, the LD50 at 240 h ([3]; ip, 95% limits (2483-2887)) was 2670 mg/kg and the mortality at 240 h ([3]; po, orally, 3000 mg/kg) was 5%. The mortality at 240 h ([3]; po, orally, 4000 mg/kg) was 30%, the mortality at 240 h ([3]; po, orally, 5000 mg/kg) was 45% and the mortality at 240 h ([3]; po, orally, 6000 mg/kg) was 60%. The mortality at 240 h ([3]; po, orally, 7000 mg/kg) was 85%, the LD50 at 240 h ([3]; po, orally, 95% limits (4879-5873)) was 5230 mg/kg and the laryngo-bronchial secretion ([4]; oral, rectal or inhalation, 50 and 200 mg/kg, every hour for four hours) was “increase in a significant manner and proportionally to the dosage”. For the same compound, the laryngo-tracheal secretion [4, 12] was “equal to the activity of α-mercaptopropionylglycine”, the tracheo-bronchial secretion [4, 12] was “more substantial activity” and the “stability in reducing medium” value [5] was “undergoes no physico-chemical change or organoleptic change”. For the same compound, the stability to light [6] was “undergoes no change”, the arterial pressure [7] was “low and temporary reduction” and the “cardiac frequency, respiratory dynamics and electrocardiogram” value [7] was “without any effect”. The tolerance [7] was “very high tolerance”, the “toxicity in the fetus (deformation, number and weight of living offspring)” value [8] was “has not induced any deformation in the fetus and has not affected the number and the weight of the living offspring” and the “chronic toxicity (symptoms, behavior, deaths, body growth, hematology, hepatic and renal functions, organs)” value [9] was “totally innocuous”. The “reduction of the period of sleep induced by Nembutal” value [10] was “very substantial” and the “period of time between administration of the histamine aerosol and appearance of bronchospastic symptoms” value [11] was “increased very substantially”.
